# Read-outs that look alike come from different tables or passages of the source.
# How the values were obtained:
# [1] = test system: Methicillin resistant S. aureus (MRSA) USA300; test: Antibacterial MIC assay, serial dilution; assay type: cell-based, Staphylococcus aureus; conditions: for Selectivity index (CC50/MIC) MRSA USA300: CC50 Vero cells / MIC; for MIC: Staphylococcus aureus, read-out: MIC Methicillin resistant S. aureus (MRSA) USA300
# [2] = test system: Vancomycin resistant E. faecalis NR-31972 (VRE); test: Antibacterial MIC assay, serial dilution; assay type: cell-based, Enterococcus faecalis; conditions: for Selectivity index (CC50/MIC) VRE NR-31972: CC50 Vero cells / MIC; for MIC: Enterococcus faecalis, VRE, 24 h, read-out: MIC Vancomycin resistant E. faecalis NR-31972 (VRE)
# Procedure, shortened: (§1)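 CAMHB microdilution; inoculum OD600 0.004 (from mid-log ~0.5); cpd 128–1 μg/mL final, from 50% DMSO/water dilutions; 37 °C, 16–18 h, VRE 24 h; OD600; MIC at >90% inhibition.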
# MRSA USA-300 = assay type: cell-based, Staphylococcus aureus; conditions: for log reduction in time-kill assay: after 24 h
# Method: MRSA USA-300 was grown overnight in cation- adjusted Muell er-Hinton broth (CAMHB), then subcultured into fresh CAMHB and incubated aerobi cally at 37°C until reaching the logarithmic phase, corresponding to an optical density (OD₆₀₀) of 0.2. The bacterial cultures were further diluted to adjust to a final concentration of 5 × 10⁵ CFU/mL in CAMHB. P3, P5, vancomycin and linezolid, were added at concentrations of 5× and 10× MIC. A DMSO-treated […]
# culture serv ed as an untreated control. The cultures were aerobically maintai ned at 37°C in shaking incubator. At specifi c sampling times, aliquots were collected, resuspended in phosphate-buffered saline (PBS) and distributed to three replicates on tryptic soy agar (TSA). After a 24-hour incubation period at 37°C, the number of colony- forming units (CFUs) was evaluated.
# F i g u re S 1. Time kill results against MRSA USA 300 at 5X and 10X MIC. Compound P3 ( 38) is shown as red squares, compound P5( 40) is shown as green tri angles. Vancomycin (inverted purple triangle) is used as a b act ericidal control and linezolid (orange diamond) as a bacteriostatic control with DMSO (blue circles ) as a neg ative control. […]
# [3] = test system: Methicillin resistant Staphylococcus epidermidis (MRSE) ATCC 35984 NRS101; test: Antibacterial MIC assay, serial dilution; assay type: cell-based; conditions: for Selectivity index (CC50/MIC) MRSE 35984: CC50 Vero cells / MIC; for MIC: Staphylococcus epidermidis, read-out: MIC Methicillin resistant Staphylococcus epidermidis (MRSE) ATCC 35984 NRS101
# [4] = test system: Vancomycin resistant Enterococcus faecium NR-31909 (VRE); test: Antibacterial MIC assay, serial dilution; assay type: cell-based; conditions: for Selectivity index (CC50/MIC) VRE NR-31909: CC50 Vero cells / MIC; for MIC: Enterococcus faecium, VRE, 24 h, read-out: MIC Vancomycin resistant Enterococcus faecium NR-31909 (VRE)
# Procedure, shortened: as §1
# [5] = test system: Enterococcus faecalis ATCC 29212; test: Antibacterial MIC assay, serial dilution; assay type: cell-based; conditions: for Selectivity index (CC50/MIC) E. faecalis 29212: CC50 Vero cells / MIC; for MIC: Enterococcus faecalis, ATCC 29112 / ATCC 29212, 24 h, read-out: MIC E. faecalis ATCC 29112
# [6] = test system: Klebsiella pneumoniae ATCC 29665; test: Antibacterial MIC assay, serial dilution; assay type: cell-based; conditions: for MIC: Klebsiella pneumoniae, ATCC29665, range from biological replicates, read-out: MIC K. pneumoniae ATCC-29665
# Procedure, shortened: as §1
# [7] = test system: Acinetobacter baumannii ATCC 17978; test: Antibacterial MIC assay, serial dilution; assay type: cell-based; conditions: ATCC17978, range from biological replicates
# Procedure, shortened: as §1
# Pseudomonas aeruginosa = test: Antibacterial MIC assay, serial dilution; assay type: cell-based; conditions: for MIC: Pseudomonas aeruginosa, range from biological replicates, read-out: MIC P. aeruginosa
# Procedure, shortened: as §1
# [8] = test system: Escherichia coli BAA-2452; test: Antibacterial MIC assay, serial dilution; assay type: cell-based; conditions: BAA2452, read-out: MIC Escherichia coli BAA-2452
Compound,Selectivity index (CC50/MIC) MRSA USA300 [1],MIC [1],Selectivity index (CC50/MIC) VRE NR-31972 [2],MIC [2],bacteriostatic or bactericidal effect in time-kill assay (MRSA USA-300; 5× MIC and 10× MIC),log reduction in time-kill assay (MRSA USA-300; 5× MIC),log reduction in time-kill assay (MRSA USA-300; 10× MIC),Selectivity index (CC50/MIC) MRSE 35984 [3],MIC [3],Selectivity index (CC50/MIC) VRE NR-31909 [4],MIC [4],Selectivity index (CC50/MIC) E. faecalis 29212 [5],MIC [5],MIC [6],MIC [7],Selectivity index (CC50/MIC) P. aeruginosa (Pseudomonas aeruginosa; CC50 Vero cells / MIC),MIC (Pseudomonas aeruginosa),MIC [8],"clearance in time-kill assay (MRSA USA-300; 5× MIC and 10× MIC, within 24 h)",Selectivity index (CC50/MIC) K. pneumoniae ([6]; CC50 Vero cells / MIC)
CNc1ccc(C(=O)Nc2ccn([C@H]3C=C[C@H](NC(=O)C[C@@H](N)CCN(C)C(=N)N)[C@@H](C(=O)NCCc4ccccc4)O3)c(=O)n2)cc1 [Blastimidine P3],>8.0,32 µg/mL,>16,16 µg/mL,bacteriostatic activity,2.5 log,2.7 log,>32,8 µg/mL,>2.0,128 µg/mL,>24,8 to 16 µg/mL,> 128 µg/mL,> 128 µg/mL,>3.0,64 to 128 µg/mL,64 µg/mL,–,–
CN(CC[C@H](N)CC(=O)N[C@H]1C=C[C@H](n2ccc(NC(=O)c3ccc(NC(=O)[C@@](C)(N)CO)cc3)nc2=O)O[C@@H]1C(=O)NCCc1ccccc1)C(=N)N [Blastimidine P5],>16,16 µg/mL,>8.0,32 µg/mL,bactericidal activity,–,–,>16,16 µg/mL,>11,16 to 32 µg/mL,>8.0,32 µg/mL,64 to 128 µg/mL,> 128 µg/mL,–,> 128 µg/mL,128 µg/mL,complete clearance,>3.0

# From article PMC12856912, “Structure-Guided Semisynthesis of Blasticidin S–Amicetin Chimeras as Selective Ribosome Inhibitors” (Journal of the American Chemical Society, 2026)
